Data reported in patent US5677419A, “Cyclic vasoactive peptide analogs” (Hoffmann-La Roche Inc., priority 1994, dated 1997).
Where a SMILES comes first, the peptide text is derived from it. Bridges are numbered along the chain shown (N, C = ends). [ ]: non-standard residue; d: D form. Phe(4-F) = N[C@@H](Cc1ccc(F)cc1)C(=O)O; Nle = CCCC[C@H](N)C(=O)O

How the values were obtained:
[1] = tested on: guinea pig tracheal smooth muscle; assay: Tracheal relaxant activity of VIP analogs on isolated guinea pig tracheal rings; assay type: cell-based; conditions: cumulative concentration response, relaxation as % of maximum response to VIP (10^-6 M=100%), three tissues pooled, linear regression
Procedure, shortened: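 Male guinea pig tracheal rings under 1.5 g resting tension in Krebs at 37° C, 95% O2/5% CO2, isometric tension. Cumulative concentration-response curves; relaxation as % of response to 10^-6 M VIP added at end; three tissues pooled, EC50 by linear regression.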

guinea pigs = assay: In vivo bronchodilator activity by tracheal instillation against histamine challenge; design: species or system guinea pig; conditions: anesthetized male guinea pigs, inhibition of histamine (i.v.)-induced rise in tracheal pressure
Procedure, shortened: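 Urethane-anaesthetised male Hartley guinea pigs (400-600 g) received compound in water by intratracheal instillation, then were paralysed, ventilated and challenged with histamine […] i.v. Tracheal pressure change gave % inhibition (≥3 animals/group); ED50 from log dose-response; duration as time until inhibition fell to 40%.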

Row | EC50 [1] [nM] | Structure (SMILES) | Bronchodilator activity of VIP analogs in guinea pigs, ED50 (guinea pigs) [μg]
1 | 2.4 | CCCC[C@H](NC(=O)[C@H](C)NC(=O)[C@H](CCCCN)NC(=O)[C@H](CCCNC(=N)N)NC(=O)[C@H](CC(C)C)NC(=O)[C@H](CCCCN)NC(=O)[C@@H](NC(=O)[C@H](Cc1ccc(O)cc1)NC(=O)[C@H](CC(N)=O)NC(=O)[C@H](C)NC(=O)[C@@H](NC(=O)[C@H](Cc1ccccc1)NC(=O)[C@@H](NC(=O)[C@H](C)NC(=O)[C@H](CC(=O)O)NC(=O)[C@H](CO)NC(=O)[C@H](Cc1c[nH]cn1)NC(C)=O)C(C)C)[C@@H](C)O)[C@@H](C)O)C(=O)N[C@@H](C)C(=O)N[C@@H](C)C(=O)N[C@@H](CCCCN)C(=O)N[C@H]1CCCCNC(=O)C[C@@H](C(=O)N[C@@H](CC(C)C)C(=O)N[C@@H](CCCCN)C(=O)N[C@@H](CCCCN)C(N)=O)NC(=O)[C@H](C)NC(=O)[C@H](CC(C)C)NC(=O)[C@H](Cc2ccc(O)cc2)NC1=O [SEQ ID NO:61, Ac-[Ala^8,Lys^12,Ala^16,Nle^17,Ala^19,Ala^24,Asp^25,Leu^26,Lys^27,28]-VIP cyclo (Lys^21 →Asp^25)] (Ac-HSDAVFTANYTKLRKA[Nle]AAKKYLADLKK-NH2; lactam 21-25) | 0.045
2 | 0.1 | CC(=O)N[C@@H](Cc1c[nH]cn1)C(=O)N[C@@H](CO)C(=O)N[C@@H](CC(=O)O)C(=O)N[C@@H](C)C(=O)N[C@H](C(=O)N[C@@H](Cc1ccccc1)C(=O)N[C@H](C(=O)N[C@@H](C)C(=O)N[C@@H](CC(N)=O)C(=O)N[C@@H](Cc1ccc(O)cc1)C(=O)N[C@H](C(=O)N[C@@H](CCCCN)C(=O)N[C@@H](CC(C)C)C(=O)N[C@@H](CCCNC(=N)N)C(=O)N[C@@H](CCCCN)C(=O)N[C@@H](C)C(=O)N[C@@H](C)C(=O)N[C@@H](C)C(=O)N[C@@H](C)C(=O)N[C@@H](CCCCN)C(=O)N[C@H]1CCCCNC(=O)C[C@@H](C(=O)N[C@@H](CC(C)C)C(=O)N[C@@H](CCCCN)C(=O)N[C@@H](CCCCN)C(N)=O)NC(=O)[C@H](C)NC(=O)[C@H](CC(C)C)NC(=O)[C@H](Cc2ccc(O)cc2)NC1=O)[C@@H](C)O)[C@@H](C)O)C(C)C [SEQ ID NO:62, Ac-[Ala^8,Lys^12,Ala^16,17,19,Ala^24,Asp^25,Leu^26,Lys^27,28]-VIP cyclo (Lys^21 →Asp^25)] (Ac-HSDAVFTANYTKLRKAAAAKKYLADLKK-NH2; lactam 21-25) | 0.24
3 | 0.22 | CC(=O)N[C@@H](Cc1c[nH]cn1)C(=O)N[C@@H](CO)C(=O)N[C@@H](CC(=O)O)C(=O)N[C@@H](C)C(=O)N[C@H](C(=O)N[C@@H](Cc1ccccc1)C(=O)N[C@H](C(=O)N[C@@H](CCC(=O)O)C(=O)N[C@@H](CC(N)=O)C(=O)N[C@@H](Cc1ccc(O)cc1)C(=O)N[C@H](C(=O)N[C@@H](CCCCN)C(=O)N[C@@H](CC(C)C)C(=O)N[C@@H](CCCNC(=N)N)C(=O)N[C@@H](CCCCN)C(=O)N[C@@H](C)C(=O)N[C@@H](C)C(=O)N[C@@H](C)C(=O)N[C@@H](C)C(=O)N[C@@H](CCCCN)C(=O)N[C@H]1CCCCNC(=O)C[C@@H](C(=O)N[C@@H](CC(C)C)C(=O)N[C@@H](CCCCN)C(=O)N[C@@H](CCCCN)C(N)=O)NC(=O)[C@H](C)NC(=O)[C@H](CC(C)C)NC(=O)[C@H](Cc2ccc(O)cc2)NC1=O)[C@@H](C)O)[C@@H](C)O)C(C)C [SEQ ID NO:64, Ac-[Glu^8,Lys^12,Ala^16,17,19,Ala^24,Asp^25,Leu^26,Lys^27,28]-VIP cyclo (Lys^21 →Asp^25)] (Ac-HSDAVFTENYTKLRKAAAAKKYLADLKK-NH2; lactam 21-25) | 0.13

The remaining lines, values behind:

Row | Structure (SMILES) | EC50 [1] [nM] | Bronchodilator activity of VIP analogs in guinea pigs, ED50 (guinea pigs) [μg]
4 | CC(=O)N[C@@H](Cc1c[nH]cn1)C(=O)N[C@@H](CO)C(=O)N[C@@H](CC(=O)O)C(=O)N[C@@H](C)C(=O)N[C@H](C(=O)N[C@@H](Cc1ccccc1)C(=O)N[C@H](C(=O)N[C@@H](CCC(=O)O)C(=O)N[C@@H](CC(N)=O)C(=O)N[C@@H](Cc1ccc(O)cc1)C(=O)N[C@H](C(=O)N[C@@H](CCCCN)C(=O)N[C@@H](CC(C)C)C(=O)N[C@@H](CCCNC(=N)N)C(=O)N[C@@H](CCCCN)C(=O)N[C@@H](C)C(=O)N[C@@H](C)C(=O)N[C@@H](C)C(=O)N[C@@H](C)C(=O)N[C@@H](CCCCN)C(=O)N[C@H]1CCCCNC(=O)C[C@@H](C(=O)N[C@@H](CC(C)C)C(=O)N[C@@H](CCCCN)C(=O)N[C@@H](CCCCN)C(N)=O)NC(=O)[C@H](CC(N)=O)NC(=O)[C@H](CC(C)C)NC(=O)[C@H](Cc2ccc(O)cc2)NC1=O)[C@@H](C)O)[C@@H](C)O)C(C)C [SEQ ID NO:60, Ac-[Glu^8,Lys^12,Ala^16,17,19,Asp^25,Leu^26,Lys^27,28]-VIP cyclo (Lys^21 →Asp^25)] (Ac-HSDAVFTENYTKLRKAAAAKKYLNDLKK-NH2; lactam 21-25) | 0.26 | 0.17
5 | CCCC[C@H](NC(=O)[C@H](CCC(N)=O)NC(=O)[C@H](CCCCN)NC(=O)[C@H](CCCNC(=N)N)NC(=O)[C@H](CC(C)C)NC(=O)[C@H](CCCCN)NC(=O)[C@@H](NC(=O)[C@H](Cc1ccc(O)cc1)NC(=O)[C@H](CC(N)=O)NC(=O)[C@H](CCC(=O)O)NC(=O)[C@@H](NC(=O)[C@H](Cc1ccccc1)NC(=O)[C@@H](NC(=O)[C@H](C)NC(=O)[C@H](CC(=O)O)NC(=O)[C@H](CO)NC(=O)[C@H](Cc1c[nH]cn1)NC(C)=O)C(C)C)[C@@H](C)O)[C@@H](C)O)C(=O)N[C@@H](C)C(=O)N[C@@H](C)C(=O)N[C@@H](CCCCN)C(=O)N[C@H]1CCCCNC(=O)C[C@@H](C(=O)N[C@H](C(=O)N[C@@H](CC(C)C)C(=O)N[C@H](C(=O)NCC(=O)NCC(=O)N[C@H](C(N)=O)[C@@H](C)O)[C@@H](C)O)C(C)C)NC(=O)[C@H](CC(N)=O)NC(=O)[C@H](CC(C)C)NC(=O)[C@H](Cc2ccc(O)cc2)NC1=O [SEQ ID NO:65, Ac-[Glu^8,Lys^12,Nle^17,Ala^19,Asp^25,Val^26,Thr^28,Gly^29,30,Thr^31]-VIP cyclo (Lys^21 →Asp^25)] (Ac-HSDAVFTENYTKLRKQ[Nle]AAKKYLNDVLTGGT-NH2; lactam 21-25) | 0.88 | 0.84
6 | CCCC[C@H](NC(=O)[C@H](CCC(N)=O)NC(=O)[C@H](CCCCN)NC(=O)[C@H](CCCNC(=N)N)NC(=O)[C@H](CC(C)C)NC(=O)[C@H](CCCCN)NC(=O)[C@@H](NC(=O)[C@H](Cc1ccc(O)cc1)NC(=O)[C@H](CC(N)=O)NC(=O)[C@H](CCC(=O)O)NC(=O)[C@@H](NC(=O)[C@H](Cc1ccc(F)cc1)NC(=O)[C@@H](NC(=O)[C@H](C)NC(=O)[C@H](CC(=O)O)NC(=O)[C@H](CO)NC(=O)[C@H](Cc1c[nH]cn1)NC(C)=O)C(C)C)[C@@H](C)O)[C@@H](C)O)C(=O)N[C@@H](C)C(=O)N[C@H](C(=O)N[C@@H](CCCCN)C(=O)N[C@H]1CCCCNC(=O)C[C@@H](C(=O)N[C@H](C(=O)N[C@@H](CC(C)C)C(=O)N[C@H](C(=O)NCC(=O)NCC(=O)N[C@H](C(N)=O)[C@@H](C)O)[C@@H](C)O)C(C)C)NC(=O)[C@H](CC(N)=O)NC(=O)[C@H](CC(C)C)NC(=O)[C@H](Cc2ccc(O)cc2)NC1=O)C(C)C [SEQ ID NO:66, Ac-[p-F-Phe^6,Glu^8,Lys^12,Nle^17,Asp^25,Val^26,Thr^28,Gly^29,30,Thr^31]-VIP cyclo (Lys^21 →Asp^25)] (Ac-HSDAV[Phe(4-F)]TENYTKLRKQ[Nle]AVKKYLNDVLTGGT-NH2; lactam 21-25) | 0.57 | 0.12
